Assay results published in patent US9462793B2, “Mouse carrying a knock-out mutation of the Qpct-gene” (PROBIODRUG AG, priority 2008, dated 2016).

Columns and labels:
[1] = system: mammalian Qpct; details: cited from earlier work
[2] = target: T1, Qpct (Homo sapiens, UniProt Q16769); experiment: pH-dependence of Qpct catalyzed conversion of Glu-βNA; type: biochemical
Excerpt: (§1) However, in the pH-range of about 5.2-6.5, between their respective pKa-values, the two functional groups are present both in non-ionized forms, in concentrations of about 1-10% (—NH2) or 10-1% (—COOH) of total N-terminal Glu-containing peptide. As a result, over a mildly acidic pH-range species of N-terminal Glu-peptides are present which carry both groups uncharged, and, therefore, it is possible that Qpct could stabilize the intermediate of intramolecular cyclization into the pGlu-peptide, i.e. if the γ-carboxylic group is protonated, the carbonyl carbon is electrophilic enough to allow nucleophilic attack by the unprotonated α-amino group. At this pH the hydroxyl ion functions as a leaving group. These assumptions are corroborated by the pH-dependence data obtained for the Qpct catalyzed conversion of Glu-βNA. In contrast to glutamine conversion of Gln-βNA by Qpct, the pH-optimum of catalysis shifts to the acidic range around pH 6.0, i.e. the pH-range, in which substrate molecule species are simultaneously abundant carrying a protonated 7-carboxyl and unprotonated α-amino group.

[3] = pKa of α-amino group determined by titration; type: physicochemical
Excerpt: as §1

[4] = target: T1, Qpct; experiment: Inhibition of Qpct by chelators (metal dependence); type: biochemical; details: human Qpct and other animal Qpcts
[5] = cited from earlier work

T1 sequence (Q16769 29-361): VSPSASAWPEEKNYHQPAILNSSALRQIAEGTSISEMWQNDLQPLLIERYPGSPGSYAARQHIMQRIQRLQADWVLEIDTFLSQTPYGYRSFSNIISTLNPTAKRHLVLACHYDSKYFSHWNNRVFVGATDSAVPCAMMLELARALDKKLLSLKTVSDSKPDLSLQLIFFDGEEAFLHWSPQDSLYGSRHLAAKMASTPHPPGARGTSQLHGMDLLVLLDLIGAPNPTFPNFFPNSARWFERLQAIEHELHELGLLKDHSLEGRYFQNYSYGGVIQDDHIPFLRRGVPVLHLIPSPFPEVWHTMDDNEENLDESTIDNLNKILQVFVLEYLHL

| Compound | Inhibition of a mammalian Qpct [1] | inhibition characteristics of Qpct [4] | further results |
| --- | --- | --- | --- |
| O=C(O)CN(CCN(CC(=O)O)CC(=O)O)CC(=O)O [EDTA] | did not inhibit | – | – |
| reduced 6-methylpterin | Inhibition of a mammalian Qpct was only detected | – | – |
| N[C@@H](CCC(=O)O)C(=O)Nc1ccc2ccccc2c1 [Glu-βNA] | – | – | kinetically determined pKa-value [2]: 7.55+/−0.02; pKa of the α-amino group, determined by titration [3]: 7.57±0.05 |
| c1cnc2c(c1)ccc1cccnc12 [1,10-phenanthroline] | Inhibition of a mammalian Qpct was only detected | inhibition | – |
| O=C(O)c1cccc(C(=O)O)n1 [dipicolinic acid] | – | inhibition | – |
| Oc1cccc2cccnc12 [8-hydroxy-quinoline] | – | inhibition | – |
| N[C@@H](CCC(=O)O)C(=O)O [Glutamate] | – | – | pKa-value for the α-amino moiety [5]: ~7.5; pKa-value for the γ-carboxylic moiety [5]: about 4.2 |
